Source: patent EP1953147A1, “HETEROCYCLIC COMPOUND AND MEDICINAL APPLICATION THEREOF” (priority 2005, dated 2007)

Test system: ΔG/SEAP/HCV E1E2
Experiment: Effect of test substance on cell infection with HCV pseudotype virus (SEAP reporter assay in HepG2 cells)
Type: cell-based
Conditions: Hepatitis C virus

Row | SMILES | IC50 [nM]
1 | CCCCNC(=O)CN1CCc2c(-c3cc(OC)cc(OC)c3)nn(-c3cc(N4CC[C@H](O)C4)ccc3C(F)(F)F)c(=O)c21 [Example 34, N-butyl-2-{4-(3,5-dimethoxy-phenyl)-6-[5-((S)-3-hydroxy-pyrrolidin-1-yl)-2-trifluoromethyl-phenyl]-7-oxo-2,3,6,7-tetrahydro-pyrrolo[2,3-d]pyridazin-1-yl}-acetamide] | < 100
2 | CCCCCCNC(=O)CN1CCc2c(-c3cc(OC)cc(OC)c3)nn(-c3cc(N4CC[C@H](O)C4)ccc3C(F)(F)F)c(=O)c21 [Example 35, 2-{4-(3,5-dimethoxy-phenyl)-6-[5-((S)-3-hydroxy-pyrrolidin-1-yl)-2-trifluoromethyl-phenyl]-7-oxo-2,3,6,7-tetrahydro-pyrrolo[2,3-d]pyridazin-1-yl}-N-hexyl-acetamide] | < 100
3 | COCCNC(=O)CN1CCc2c(-c3cc(OC)cc(OC)c3)nn(-c3cc(N4CC[C@H](O)C4)ccc3C(F)(F)F)c(=O)c21 [Example 36, 2-{4-(3,5-dimethoxy-phenyl)-6-[5-((S)-3-hydroxy-pyrrolidin-1-yl)-2-trifluoromethyl-phenyl]-7-oxo-2,3,6,7-tetrahydro-pyrrolo[2,3-d]pyridazin-1-yl}-N-(2-methoxy-ethyl)-acetamide] | < 100
4 | COc1cc(OC)cc(-c2nn(-c3cc(N4CCCC4)ccc3C(F)(F)F)c(=O)c3c2CCN3)c1 [Example 37, 4-(3,5-dimethoxy-phenyl)-6-(5-pyrrolidin-1-yl-2-trifluoromethyl-phenyl)-1,2,3,6-tetrahydro-pyrrolo[2,3-d]pyridazin-7-one] | < 100
5 | COc1cc(OC)cc(-c2nn(-c3cc(N4CC[C@H](O)C4)ccc3S(C)(=O)=O)c(=O)c3c2CCC3)c1 [Example 38, 4-(3,5-dimethoxy-phenyl)-2-[5-((S)-3-hydroxy-pyrrolidin-1-yl)-2-methanesulfonyl-phenyl]-2,5,6,7-tetrahydro-cyclopenta[d]pyridazin-1-one] | < 100
6 | COc1cc(OC)cc(-c2nn(-c3cc(N4CC[C@H](O)C4)ccc3C(F)(F)F)c(=O)c3c2CCN3CC(=O)NCCNC(C)=O)c1 [Example 39, N-(2-acetylamino-ethyl)-2-{4-(3,5-dimethoxy-phenyl)-6-[5-((S)-3-hydroxy-pyrrolidin-1-yl)-2-trifluoromethyl-phenyl]-7-oxo-2,3,6,7-tetrahydro-pyrrolo[2,3-d]pyridazin-1-yl}-acetamide] | < 100
7 | COc1cc(OC)cc(-c2nn(-c3cc(N4CC[C@H](O)C4)ccc3C(F)(F)F)c(=O)c3c2CCN3CC(=O)NCCCCCCNC(C)=O)c1 [Example 40, N-(6-acetylamino-hexyl)-2-{4-(3,5-dimethoxy-phenyl)-6-[5-((S)-3-hydroxy-pyrrolidin-1-yl)-2-trifluoromethyl-phenyl]-7-oxo-2,3,6,7-tetrahydro-pyrrolo[2,3-d]pyridazin-1-yl}-acetamide] | < 100
8 | COc1cc(OC)cc(-c2nn(-c3cc(N4CC[C@H](O)C4)ccc3C(F)(F)F)c(=O)c3c2CCN3CC(=O)N2CCN(C(C)=O)CC2)c1 [Example 41, 1-[2-(4-acetyl-piperazin-1-yl)-2-oxo-ethyl]-4-(3,5-dimethoxy-phenyl)-6-[5-((S)-3-hydroxy-pyrrolidin-1-yl)-2-trifluoromethyl-phenyl]-1,2,3,6-tetrahydro-pyrrolo[2,3-d]pyridazin-7-one] | < 100
9 | COc1cc(OC)cc(-c2nn(-c3cc(N4CC[C@H](O)C4)ccc3F)c(=O)c3c2CCC3)c1 [Example 42, 4-(3,5-dimethoxy-phenyl)-2-[2-fluoro-5-((S)-3-hydroxy-pyrrolidin-1-yl)-phenyl]-2,5,6,7-tetrahydro-cyclopenta[d]pyridazin-1-one] | 100 to 10000
10 | COc1cccc(-c2nn(-c3cc(N4CC[C@H](O)C4)ccc3C(F)(F)F)c(=O)c3c2CCN3)c1 [Example 43, 6-[5-((S)-3-hydroxy-pyrrolidin-1-yl)-2-trifluoromethyl-phenyl]-4-(3-methoxy-phenyl)-1,2,3,6-tetrahydro-pyrrolo[2,3-d]pyridazin-7-one] | < 100
11 | COc1cc(OC)cc(-c2nn(-c3cc(N4CC[C@H](O)C4)ccc3C(F)(F)F)c(=O)c3c2CCN3CC(=O)NCCCCNC(C)=O)c1 [Example 44, N-(4-acetylamino-butyl)-2-{4-(3,5-dimethoxy-phenyl)-6-[5-((S)-3-hydroxy-pyrrolidin-1-yl)-2-trifluoromethyl-phenyl]-7-oxo-2,3,6,7-tetrahydro-pyrrolo[2,3-d]pyridazin-1-yl}-acetamide] | < 100
12 | COc1cncc(-c2nn(-c3cc(N4CC[C@H](O)C4)ccc3C(F)(F)F)c(=O)c3c2CCC3)c1 [Example 45, 2-[5-((S)-3-hydroxy-pyrrolidin-1-yl)-2-trifluoromethyl-phenyl]-4-(5-methoxy-pyridin-3-yl)-2,5,6,7-tetrahydro-cyclopenta[d]pyridazin-1-one] | < 100
13 | CCCCCC(=O)NCCNC(=O)CN1CCc2c(-c3cc(OC)cc(OC)c3)nn(-c3cc(N4CC[C@H](O)C4)ccc3C(F)(F)F)c(=O)c21 [Example 46, hexanoic acid [2-(2-{4-(3,5-dimethoxy-phenyl)-6-[5-((S)-3-hydroxy-pyrrolidin-1-yl)-2-trifluoromethylphenyl]-7-oxo-2,3,6,7-tetrahydro-pyrrolo[2,3-d]pyridazin-1-yl}-acetylamino)-ethyl]-amide] | < 100
14 | COC(=O)CCNc1ccc(C(F)(F)F)c(-n2nc(-c3cc(OC)cc(OC)c3)c3c(c2=O)NCC3)c1 [Example 47, 3-{3-[4-(3,5-dimethoxy-phenyl)-7-oxo-1,2,3,7-tetrahydro-pyrrolo[2,3-d]pyridazin-6-yl]-4-trifluoromethyl-phenylamino}-propionic acid methyl ester] | < 100
15 | COc1cc(OC)cc(-c2nn(-c3cc(N4CC[C@H](O)C4)ccc3C(F)(F)F)c(=O)c3c2CCN3CC#N)c1 [Example 48, {4-(3,5-dimethoxy-phenyl)-6-[5-((S)-3-hydroxy-pyrrolidin-1-yl)-2-trifluoromethyl-phenyl]-7-oxo-2,3,6,7-tetrahydro-pyrrolo[2,3-d]pyridazin-1-yl}-acetonitrile] | < 100
16 | COc1cc(OC)cc(-c2nn(-c3cc(N4CC[C@H](O)C4)ccc3C(F)(F)F)c(=O)c3c2CCN3CCN)c1 [Example 49, 1-(2-amino-ethyl)-4-(3,5-dimethoxy-phenyl)-6-[5-((S)-3-hydroxy-pyrrolidin-1-yl)-2-trifluoromethylphenyl]-1,2,3,6-tetrahydro-pyrrolo[2,3-d]pyridazin-7-one] | < 100
17 | COc1cc(OC)cc(-c2nn(-c3cc(F)ccc3C(F)(F)F)c(=O)c3c2CCN3)c1 [Example 50, 4-(3,5-dimethoxy-phenyl)-6-(5-fluoro-2-trifluoromethyl-phenyl)-1,2,3,6-tetrahydro-pyrrolo[2,3-d]pyridazin-7-one] | 100 to 10000
18 | COc1cc(OC)cc(-c2nn(-c3cc(Cl)ccc3C(F)(F)F)c(=O)c3c2CCN3)c1 [Example 51, 6-(5-chloro-2-trifluoromethyl-phenyl)-4-(3,5-dimethoxy-phenyl)-1,2,3,6-tetrahydro-pyrrolo[2,3-d]pyridazin-7-one] | 100 to 10000
19 | COc1cc(OC)cc(-c2nn(-c3cccc(N4CC[C@H](O)C4)c3)c(=O)c3c2CCN3)c1 [Example 52, 4-(3,5-dimethoxy-phenyl)-6-[3-((S)-3-hydroxy-pyrrolidin-1-yl)-phenyl]-1,2,3,6-tetrahydro-pyrrolo[2,3-d]pyridazin-7-one] | 100 to 10000
20 | CCCOc1ccc(C(F)(F)F)c(-n2nc(-c3cc(OC)cc(OC)c3)c3c(c2=O)CCC3)c1 [Example 53, 4-(3,5-dimethoxy-phenyl)-2-(5-propoxy-2-trifluoromethyl-phenyl)-2,5,6,7-tetrahydro-cyclopenta[d]pyridazin-1-one] | < 100
21 | COc1cc(OC)cc(-c2nn(-c3cc(N4CC[C@H](O)C4)ccc3C(F)(F)F)c(=O)c3c2CCN3C)c1 [Example 54, 4-(3,5-dimethoxy-phenyl)-6-[5-((S)-3-hydroxy-pyrrolidin-1-yl)-2-trifluoromethyl-phenyl]-1-methyl-1,2,3,6-tetrahydro-pyrrolo[2,3-d]pyridazin-7-one] | < 100
22 | CCN1CCc2c(-c3cc(OC)cc(OC)c3)nn(-c3cc(N4CC[C@H](O)C4)ccc3C(F)(F)F)c(=O)c21 [Example 55, 4-(3,5-dimethoxy-phenyl)-1-ethyl-6-[5-((S)-3-hydroxy-pyrrolidin-1-yl)-2-trifluoromethyl-phenyl]-1,2,3,6-tetrahydro-pyrrolo[2,3-d]pyridazin-7-one] | < 100
23 | COc1cc(OC)cc(-c2nn(-c3cc(N4CC[C@H](O)C4)ccc3C(F)(F)F)c(=O)c3c2CCN3CC(=O)NCCCN2CCN(CCCNC(C)=O)CC2)c1 [Example 56, N-{3-[4-(3-acetylamino-propyl)-piperazin-1-yl]-propyl}-2-{4-(3,5-dimethoxy-phenyl)-6-[5-((S)-3-hydroxy-pyrrolidin-1-yl)-2-trifluoromethyl-phenyl]-7-oxo-2,3,6,7-tetrahydro-pyrrolo[2,3-d]pyridazin-1-yl}-acetamide] | 100 to 10000
24 | CCC(=O)Nc1ccc(C(F)(F)F)c(-n2nc(-c3cc(OC)cc(OC)c3)c3c(c2=O)CCC3)c1 [Example 57, N-{3-[4-(3,5-dimethoxy-phenyl)-1-oxo-1,5,6,7-tetrahydro-cyclopenta[d]pyridazin-2-yl]-4-trifluoromethyl-phenyl}-propionamide] | < 100
25 | COc1cccc(-c2nn(-c3cc(N4CC[C@H](O)C4)ccc3C(F)(F)F)c(=O)c3c2CCC3)c1 [Example 58, 2-[5-((S)-3-hydroxy-pyrrolidin-1-yl)-2-trifluoromethyl-phenyl]-4-(3-methoxy-phenyl)-2,5,6,7-tetrahydro-cyclopenta[d]pyridazin-1-one] | < 100
26 | COc1cc(OC)cc(-c2nn(-c3cc(N4CC[C@@H](O)C4)ccc3C(F)(F)F)c(=O)c3c2CCN3C(=O)OC(C)(C)C)c1 [Example 59, 4-(3,5-dimethoxy-phenyl)-6-[5-((R)-3-hydroxy-pyrrolidin-1-yl)-2-trifluoromethyl-phenyl]-7-oxo-2,3,6,7-tetrahydro-pyrrolo[2,3-d]pyridazine-1-carboxylic acid tert-butyl ester] | < 100
